Legend:
platelets [1] = details: via binding to Guanylate Cyclase; Brune and Ullrich 1987; cited from earlier work
Salmonella thyphimurium [2] = assay: Growth of Salmonella thyphimurium in PRP or PC fractions; assay type: cell-based; details: compared with air (FIG. 7)
Experimental: (§1) PC fractions were identically prepared from CO pretreated or untreated blood by consecutive centrifugation in a sterile environment using blood bank conditions. Bicarbonate (4% of PC volume) is than added from a stock solution of 750 mM while agitation to yield a final bicarbonate concentration of 30 mM. Next, the PC is treated with CO in a similar manner to whole blood. Alternatively, rather than applying a vacuum, the containers were flushed for 10 min. with sterile CO while agitating the containers, which were then sealed. The containers were allowed to stay at room temperature of 20-24° C.PRP platelets were treated similarly.
(§2) Control blood samples were packed under air in the same containers without any additional treatment allowing air transfer. In some experiments control of inert gas like nitrogen were used to exchange the air in the same manner as CO.
Whole blood or its factions were inoculated with pathogenic bacteria. Growth of the bacteria at room temperature was followed under different atmospheres (gas environments ). The blood fractions were platelets in plasma (PRP); concentrated platelets (PC) as currently stored in blood banks after removal of about three quarters of the plasma and the cell-free blood plasma. […]

human body = details: cited from earlier work
Pseudomonas aeraginosa = assay: Growth of inoculated Pseudomonas aeraginosa in platelets stored as PRP; assay type: cell-based; details: 20-24° C., inoculated at 16 CFU/ml, compared with air (FIG. 4)
Experimental: (§3) PC fractions were identically prepared from CO pretreated or untreated blood by consecutive centrifugation in a sterile environment using blood bank conditions. Bicarbonate (4% of PC volume) is than added from a stock solution of 750 mM while agitation to yield a final bicarbonate concentration of 30 mM. […] Alternatively, rather than applying a vacuum, the containers were flushed for 10 min. with sterile CO while agitating the containers, which were then sealed. The containers were allowed to stay at room temperature of 20-24° C.PRP platelets were treated similarly.
(§4) Control blood samples were packed under air in the same containers without any additional treatment allowing air transfer. In some experiments control of inert gas like nitrogen were used to exchange the air in the same manner as CO. […]
(§5) For FIGS. 2-6, platelets were stored as PRP with agitation at room temperature (20-24° C.) in a blood bank rocking plane as for regular blood bank under air with gas exchange option (AIR); or sealed under nitrogen atmosphere (N2) or carbon monoxide atmosphere (CO). […] The amount of inoculated bacteria was adjusted to a range of 10-100 CFU/ml before inoculation, in which the exact final number of bacteria was been measured by plating the stock on suitable agar plates allowing growth and counting (the final initial counts are given in each case).

Salmonella thyphimurium [3] = assay: Growth of Salmonella thyphimurium in cells-free plasma; assay type: cell-based; details: plasma alone as source of nutrition (FIG. 8)
Excerpt: Whole blood or its factions were inoculated with pathogenic bacteria. Growth of the bacteria at room temperature was followed under different atmospheres (gas environments ). The blood fractions were platelets in plasma (PRP); concentrated platelets (PC) as currently stored in blood banks after removal of about three quarters of the plasma and the cell-free blood plasma.
FIG. 8 compares the growth of Salmonella thyphimurium in cells-free plasma under AIR, N2 and CO.

E. coli (strain O 157) = assay: Growth of inoculated E. coli in platelets stored as PRP; assay type: cell-based; details: 20-24° C., inoculated at 25 CFU/ml, compared with air (FIG. 3)
Experimental: as §3, §4, §5

platelets [4] = assay: Ability of stored platelets to aggregate upon activation by collagen (Plateletworks kit); assay type: cell-based, human
Experimental: An assessment of the potential of platelets to form aggregates upon activation by an agonist, preferably collagen, a typical physiological agonist, was performed, to determine the potential effect of carbon monoxide on this physiological function of platelets. The assay was performed as follows.
Fresh blood bank platelets, prepared as platelet concentrates (PC), were used. Each PC unit was divided. One part was stored without carbon monoxide treatment, which is the current method of preserving PC in blood banks. The other portion was sealed under carbon monoxide as previously described. Samples were preserved under sterile conditions at 20-23° C., while shaking gently. The ability of platelets to aggregate upon activation by collagen as an agonist was tested daily using a kit by Helena Laboratories (USA), called the Plateletworks kit. To allow platelet count and reduce anticoagulant activity, the PC was diluted 1:10 with the physiological buffer PBS pH 7.3. The whole individual platelets present were counted prior and after addition of the agonist, for this example collagen.
Therefore, the stored PC samples (control and stored under carbon monoxide) were tested for their ability to aggregate following two hours shaking under air after being removed from storage.

platelets [5] = assay: Platelet viability: leakage of LDH from stored platelets; assay type: cell-based, human
Experimental: as §1
The viability of the platelets under storage was tested in the form of PC because platelets are currently stored in this form, in order to be able to store and use the extra plasma in PRP separately. However, the PC environment lacks both red cells and plasma, such that platelets in this environment are more sensitive than in the PRP form to loss of viability. Without wishing to be limited to a single hypothesis, platelets in the form of PC may experience changes in pH, and therefore may lose the necessary pH neutrality of the environment. The viability of platelets stored as PC was investigated according to two parameters: drop of pH of the environment, and loss of membrane integrity of the cells themselves, leading to leakage of cellular proteins.
With regard to leakage of LDH, cell viability can also be evaluated according to membrane integrity. LDH (lactic dehydrogenase) is a stable enzyme which is normally active inside cells; when these cells have loss of membrane integrity, LDH is leaked outside the cells, such that higher levels of LDH activity are correlated with reduced platelet viability. The presence of LDH activity in platelet-free solution samples was measured in order to assess the viability of the platelet-containing fractions from which the samples were taken. […]

Yersinia Enterocolitica = assay: Growth of inoculated Yersinia Enterocolitica in whole blood under different atmospheres; assay type: cell-based; details: room temperature, about 20 bacteria per ml inoculated, compared with air (FIG. 1)
Experimental: Freshly drawn whole blood was obtained from a human donor under sterile conditions, and stored in gas impermeable bags having a volume of at least 1.5 times that of the blood volume. The gas environment (or atmosphere) in the bag was then replaced by an atmosphere containing sterile CO by applying a low level vacuum with a water pump of 20 mm Hg. CO was immediately flushed through a 0.25 micron sterile filter. The bag was sealed and agitated for 15 minutes to allow equilibration. This procedure was repeated three times thereby exchanging the atmosphere in the bag and blood with CO. Saturation with carbon monoxide can be identified in hemoglobin in samples of the treated blood according to typical changes of the light absorption spectrum of the hemoglobin in the visible region by a shift from 577 nm (typical of oxy-hemoglobin) to 569 nm (typical of carbomonoxy-hemoglobin).
as §2
Whole blood or its factions were inoculated with pathogenic bacteria. Growth of the bacteria at room temperature was followed under different atmospheres (gas environments ). […]

Bacilus cereus = assay: Growth of inoculated Bacilus cereus in platelets stored as PRP; assay type: cell-based; details: 20-24° C., inoculated at 18 CFU/ml, compared with air (FIG. 2)
Experimental: as §3, §4, §5

Staphilococcus aereus = assay: Growth of inoculated Staphilococcus aereus in platelets stored as PRP; assay type: cell-based; details: 20-24° C., inoculated at 18 CFU/ml, compared with air (FIG. 6)
Experimental: as §3, §4, §5

Bulkholderia cepasea = assay: Growth of inoculated Bulkholderia cepasea in platelets stored as PRP; assay type: cell-based; details: 20-24° C., inoculated at 12 CFU/ml, compared with air (FIG. 5)
Experimental: as §3, §4, §5

bacteria = details: upon photoactivation; Gambro BCT abstracts 2001; cited from earlier work
platelets [6] = details: autologous transfusions performed in primates; cited from earlier work

SMILES | aggregation of platelets (platelets [1]) | growth of Salmonella thyphimurium in PC (Salmonella thyphimurium [2]; PC, count at time zero 32 CFU/ml) | growth of Salmonella thyphimurium in PRP (Salmonella thyphimurium [2]; PRP, count at time zero 16 CFU/ml) | safety threshold or TLV, equivalent inhalation (human body; equivalent of 8 hours per day at 20 ppm) | safety threshold or TLV for the human body (human body; inhalation of 8 hours per day of air containing the gas) [ppm] | growth of Pseudomonas aeraginosa in PRP (Pseudomonas aeraginosa) | growth of Salmonella thyphimurium in cells-free plasma (Salmonella thyphimurium [3]) | growth of E. coli (strain O 157) in PRP (E. coli (strain O 157)) | ability to aggregate in response to collagen (platelets [4]; PC stored under carbon monoxide, carbon monoxide replaced by air) | formation of aggregates upon exposure to collagen (platelets [4]; PC stored under carbon monoxide, tested immediately after being exposed to air) | fraction of platelets able to form aggregates (platelets [4]; PC, day 11, two hours shaking under air after storage, compared with same PC unit stored under air (FIGS. 11A-11C)) | LDH activity in the supernatant, a measure of leakage (platelets [5]; PC, air vs CO vs CO with sodium bicarbonate (FIG. 10)) | viability of platelets in PC (LDH leakage) (platelets [5]; PC, no additional bicarbonate, compared with air (FIG. 10)) | leakage of LDH (LDH activity in supernatant), platelets stored as PRP (platelets [5]; PRP, compared with air, data not shown) | growth of inoculated Yersinia Enterocolitica in whole blood (Yersinia Enterocolitica) | growth of Bacilus cereus in PRP (Bacilus cereus) | growth of Staphilococcus aereus in PRP (Staphilococcus aereus) | growth of Bulkholderia cepasea in PRP (Bulkholderia cepasea) | effectiveness for bacterial inactivation (bacteria) | platelet survival rates (platelets [6])
[C-]#[O+] [carbon monoxide] | can inhibit aggregation | inhibited | significantly inhibited | 10^4 ppm/minute | 20 | significantly inhibited | inhibition of pathogen growth was maintained | significantly inhibited | regained their ability to aggregate | did not form aggregates | larger fraction | similar, high levels | lost much faster than stored in air | equal or even somewhat lower than under air | completely inhibited | significantly inhibited | significantly inhibited | eliminated | – | –
N#N [nitrogen, reference compound] | – | – | – | – | – | little or no effect | – | little or no effect | – | – | – | – | – | – | completely inhibited | little or no effect | little or no effect | little or no effect | – | –
Cc1cc2nc3c(=O)[nH]c(=O)nc-3n(C[C@H](O)[C@H](O)[C@H](O)CO)c2cc1C [riboflavin] | – | – | – | – | – | – | – | – | – | – | – | – | – | – | – | – | – | – | variable effectiveness | may even decrease platelet survival rates

Reference: patent US20040109903A1, “Method for extended storage of viable and pathogen-safe blood and blood components using carbon monoxide” (priority 2002, published 2004)
